The source of these data is patent US20260250289A1, “BICYCLIC HETEROCYCLES AND THEIR USE AS WRN INHIBITORS” (Novartis AG, priority 2022, published 2026).

One assay deals with SW48 cells. Kind of assay: Proliferation assay SW48 (CellTiterGlo). The format is cell-based. The following applies: Homo sapiens, SW48, 96 h, read-out: Proliferation Assay SW48 GI50. The text has this: The colon carcinoma cell lines SW48 (RRID: CVCL_1724), HCT 116 (RRID: CVCL_0291) and SNU-407 (RRID: CVCL_5058) were obtained from ATCC. The WRN-knockdown insensitive colon carcinoma cell line DLD-1 (RRID: CVCL_0248) was obtained from the Korean Cell Line Bank (KCLB), and used to generate a derivative in which the endogenous WRN gene copies were knocked out by CRISPR-mediated editing using standard CRISPR methods. The resulting cell line, DLD1-WRN-KO, was used to assess potential off-target compound effects.
SW48, SNU-407 and DLD1-WRN-KO cells were cultured in growth medium composed of RPMI-1640 (Amimed Cat #1-41F22-1), 2 mM L-Glutamine (Amimed Cat #5-10K50), 10 mM HEPES (Gibco Cat #15630-056), 1 mM sodium pyruvate (Amimed Cat #5-60F00-H), 1× Penicillin-Streptomycin (Amimed Cat #4-01F00-H) and 10% fetal calf serum (Amimed Cat #2-01F30-G, Lot #LB11566P). HCT 116 cells were cultured in growth medium composed of McCoys 5A (Amimed catalog #1-18F01-1), 2 mM L-Glutamine (Amimed Cat #5-10K50), 1× Penicillin-Streptomycin (Amimed Cat #4-01F00-H) and 10% fetal calf serum (Amimed Cat #2-01F30-G, Lot #LB11566P). All cells were maintained at 37° C. in a humidified 5% CO2 incubator.
Following filtration through a Steriflip-NY 20 μm filter (Millipore Cat #SCNY00020), trypsinized cells were seeded in 100 microliters growth medium at 2,000 (SW48) or 1,500 (SNU-407, DLD1-WRN-KO, HCT 116) cells/well into white, clear-bottom 96-well plates (Costar Cat #3903). Three replicate plates were prepared for each compound treatment condition. In addition, one plate (termed “day 0”) was prepared to quantify the number of viable cells at the time of compound addition. Following overnight incubation at 37° C. in a humidified 5% CO2 atmosphere, eight 3-fold serial dilutions of a given compound stock (obtained at a concentration of 10 mM in DMSO and stored at 4° C.) were dispensed directly into each of the triplicate assay plates using a HP 300D non-contact Digital Dispenser (TECAN). The final concentration of DMSO was normalized to 0.1% in all wells. 96 hours after compound addition, cellular ATP levels as a surrogate for cell viability was assessed following addition of 50 microliters CellTiterGlo (Promega Cat #G7573) reagent and luminescence quantification on a MPLEX multi-mode plate-reader (TECAN) following a 10 minute incubation at room temperature. The number of viable cells in the “day 0” plate were quantified identically on the day of compound addition.
For data analysis, the assay background signal that was determined in wells containing medium, but no cells, was subtracted from all other data points prior to further calculations. The extent of growth inhibition and potential cell kill was assessed by comparing the ATP levels (measured using CellTiterGlo, Promega) in compound-treated cells with those present at the time of compound addition. To this end, the following conditional concept was programmatically applied in HELIOS, an in-house software applying a multi-step decision tree to arrive at optimal concentration response curve fits (Gubler et al, SLAS DOI: 10.1177/2472555217752140) to calculate % growth (% G) for each compound-treated well: % G=(T−V0)/V0))*100 when T<V0, and % G=(T−V0)/(V−V0)))*100 when T≥V0, where V0 is the viability level at time of compound addition, while V and T represent vehicle-control and compound-treated viability levels, respectively, at the end of the compound incubation. 100%, 0% and −100% signify absence of growth inhibition, growth stasis, and complete cell kill, respectively. Compound concentrations leading to half-maximal growth inhibition (GI50) and residual cell viability at the highest tested compound concentration (Data (cmax), expressed in percent) were routinely calculated. Data analysis can also be carried out using commercially available software designed to derive IC50 values using 4-parameter fits (e.g. GraphPad Prism, XL fit). […]
Background: In ATP-based viability assays light output follows the ATP content of the culture.

The next assay deals with DLD1-WRN-KO cells. As to the kind of experiment: Proliferation assay DLD1-WRN-KO (CellTiterGlo, off-target effects). Type of assay: cell-based. The settings on record: 96 hours, geometric mean of at least 2. The method, then:
The WRN-knockdown insensitive colon carcinoma cell line DLD-1 (RRID: CVCL_0248) was obtained from the Korean Cell Line Bank (KCLB), and used to generate a derivative in which the endogenous WRN gene copies were knocked out by CRISPR-mediated editing using standard CRISPR methods. The resulting cell line, DLD1-WRN-KO, was used to assess potential off-target compound effects. […]
Three replicate plates were prepared for each compound treatment condition. In addition, one plate (termed “day 0”) was prepared to quantify the number of viable cells at the time of compound addition. Following overnight incubation at 37° C. in a humidified 5% CO2 atmosphere, eight 3-fold serial dilutions of a given compound stock (obtained at a concentration of 10 mM in DMSO and stored at 4° C.) were dispensed directly into each of the triplicate assay plates using a HP 300D non-contact Digital Dispenser (TECAN). The final concentration of DMSO was normalized to 0.1% in all wells. 96 hours after compound addition, cellular ATP levels as a surrogate for cell viability was assessed following addition of 50 microliters CellTiterGlo (Promega Cat #G7573) reagent and luminescence quantification on a MPLEX multi-mode plate-reader (TECAN) following a 10 minute incubation at room temperature. The number of viable cells in the “day 0” plate were quantified identically on the day of compound addition.
For data analysis, the assay background signal that was determined in wells containing medium, but no cells, was subtracted from all other data points prior to further calculations. The extent of growth inhibition and potential cell kill was assessed by comparing the ATP levels (measured using CellTiterGlo, Promega) in compound-treated cells with those present at the time of compound addition. […] 100%, 0% and −100% signify absence of growth inhibition, growth stasis, and complete cell kill, respectively. Compound concentrations leading to half-maximal growth inhibition (GI50) and residual cell viability at the highest tested compound concentration (Data (cmax), expressed in percent) were routinely calculated. Data analysis can also be carried out using commercially available software designed to derive IC50 values using 4-parameter fits (e.g. GraphPad Prism, XL fit). The reported GI50 values are the geometrical means of at least 2 independent replicates.

For assay [1], the target named is T1, WRN helicase (aa N517-P1238) (Homo sapiens, UniProt Q14191).
T1 construct: The core helicase motif of the WRN protein (aa N517-P1238) was produced for this assay; His (N); ZZ (N); 3C protease cleavage site (N); made in house; host or cells: Sf21 insect cells (baculovirus; virus and BIICs made in SF9)
Kind of assay: WRN ATPase assay (DNA dependent ATP hydrolysis, ADP-Glo). The format is biochemical. The settings on record: 3 hours pre-incubation, 300 micromolar ATP, FLAP26 DNA; geometric mean of at least 2. The text has this: An ATPase assay was set up to measure the DNA dependent ATP hydrolysis activity of WRN helicase. This assay was used also to assess the inhibition properties of compounds of the invention on DNA dependent WRN ATPase activity.
The core helicase motif of the WRN protein (aa N517-P1238) was produced for this assay (protein production as described above). […] The ADP-Glo assay kit (Promega, Madison, WI) allowing the quantification of ADP produced in ATP hydrolysis reactions was used for setting up this assay.
Time course experiments were first performed in order to determine the best enzymatic assay conditions (including buffer conditions, reaction time and concentrations of protein, ATP and DNA substrates). A typical reaction consists of 10 nM WRN protein, 0.2 nM FLAP26, and 300 micromolar ATP in the following assay buffer: 30 mM Tris pH7.5, 2 mM MgCl2, 0.02% BSA, 50 mM NaCl, 0.1% pluronic F127 prepared in DNAse free water.
To evaluate the inhibition properties of compounds of the invention, serial dilutions were prepared in DMSO (10 half log dilutions from a 10 mM DMSO solution). […] The reaction was stopped with the addition of 5 microliters of the first ADP-Glo reagent and incubated for one hour to remove the excess amount of ATP. Afterwards, 10 microliters of ATP detection reagent was added and incubated for an additional hour before reading. Luminescence output was recorded using Tecan 1000 reader, with 5 minutes delay before reading. Each concentration of compound was tested in duplicates in the assay plate.
Following normalization of activity values for the wells to % inhibition (% inhibition=[(high control-sample)/(high control-low control)]×100), IC50 fitting was carried out from the duplicate determinations present on each plate according to [4]. Data analysis can also be carried out using commercially available software designed to derive IC50 values using 4-parameter fits (e.g. GraphPad Prism, XL fit). The reported IC50 values are the geometrical means of at least 2 independent replicates.
A general note: In ADP-Glo the light output rises with the ADP produced.

The mark [2] stands for this setting: SW48 colon carcinoma cells, 96 hours, CellTiterGlo, geometric mean of at least 2.

Read-outs that look alike come from different tables or passages of the source. Some results are limits rather than exact numbers.

T1 sequence (Q14191 517-1238): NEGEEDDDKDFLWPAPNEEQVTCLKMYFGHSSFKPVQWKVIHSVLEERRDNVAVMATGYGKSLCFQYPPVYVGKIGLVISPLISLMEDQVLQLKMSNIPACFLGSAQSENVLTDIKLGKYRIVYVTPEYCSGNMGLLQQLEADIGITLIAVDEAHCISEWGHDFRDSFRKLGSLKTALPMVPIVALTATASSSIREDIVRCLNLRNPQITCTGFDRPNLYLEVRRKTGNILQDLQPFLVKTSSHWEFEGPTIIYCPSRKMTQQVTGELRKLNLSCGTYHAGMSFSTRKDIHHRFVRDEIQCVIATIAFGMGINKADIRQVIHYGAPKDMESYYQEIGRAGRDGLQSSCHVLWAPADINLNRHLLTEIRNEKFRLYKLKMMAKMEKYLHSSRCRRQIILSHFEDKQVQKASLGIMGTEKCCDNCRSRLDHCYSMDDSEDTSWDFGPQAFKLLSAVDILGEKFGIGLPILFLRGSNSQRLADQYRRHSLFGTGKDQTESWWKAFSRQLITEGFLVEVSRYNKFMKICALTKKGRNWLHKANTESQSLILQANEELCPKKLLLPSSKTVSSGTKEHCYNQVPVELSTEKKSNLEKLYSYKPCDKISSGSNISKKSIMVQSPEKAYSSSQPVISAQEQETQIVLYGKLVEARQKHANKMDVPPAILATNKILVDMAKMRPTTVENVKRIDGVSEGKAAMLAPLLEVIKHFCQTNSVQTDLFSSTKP

`CC(=O)N1CCN(c2c(C)n(CC(=O)Nc3ccc(C(F)(F)F)cc3)c3nc(N4CCCC(F)C4)nn3c2=O)CC1` (stereo not shown) [Example 1, 2-(6-(4-acetylpiperazin-1-yl)-2-(3-fluoropiperidin-1-yl)-5-methyl-7-oxo-[1,2,4]triazolo[1,5-a]pyrimidin-4(7H)-yl)-N-(4-(trifluoromethyl)phenyl)acetamide]: the results for the GI50 in the assay with SW48 cells (setting [2]) and in the assay with DLD1-WRN-KO cells were 5 µM and more than 10 µM, respectively. The IC50 (in general, the concentration that inhibits the measured activity by half) in assay [1] was 1 µM.
The like results for `CC(=O)N1CCN(c2nc3n(CC(=O)Nc4ccc(Cl)cc4)c(C)c(N4CCN(C(=O)c5ccncc5O)CC4)c(=O)n3n2)CC1` [Example 2, 2-(2-(4-acetylpiperazin-1-yl)-6-(4-(3-hydroxyisonicotinoyl)piperazin-1-yl)-5-methyl-7-oxo-[1,2,4]triazolo[1,5-a]pyrimidin-4(7H)-yl)-N-(4-chlorophenyl)acetamide] were, in that order, more than 10 µM, more than 10 µM and 0.3 µM.
Take `CC(=O)N1CCN(c2c(C)n(CC(=O)Nc3ccc(Cl)cc3)c3nc(-c4ccccc4)nn3c2=O)CC1` [Example 3, 2-(6-(4-acetylpiperazin-1-yl)-5-methyl-7-oxo-2-phenyl-[1,2,4]triazolo[1,5-a]pyrimidin-4(7H)-yl)-N-(4-chlorophenyl)acetamide]: the figures for the GI50 with SW48 cells (setting [2]) and with DLD1-WRN-KO cells were 3 µM and 10 µM, respectively. This molecule gave an IC50 in assay [1] of 0.1 µM.
The like results for `CC(=O)N1CCN(c2c(C)n(CC(=O)Nc3ccc(C(F)(F)F)nc3Cl)c3nc(N4CCCC(F)C4)nn3c2=O)CC1` (stereo not shown) [Example 5, 2-(6-(4-acetylpiperazin-1-yl)-2-(3-fluoropiperidin-1-yl)-5-methyl-7-oxo-[1,2,4]triazolo[1,5-a]pyrimidin-4(7H)-yl)-N-(2-chloro-6-(trifluoromethyl)pyridin-3-yl)acetamide] were, in that order, 8 µM, more than 10 µM and 2 µM.
Consider `CCc1c(N2CCN(C(=O)c3nccc4cc[nH]c34)CC2)c(=O)n2nc(C3=CCOCC3)nc2n1CC(=O)Nc1ccc(C(F)(F)F)cc1C` [Example 41, 2-(6-(4-(1H-pyrrolo[2,3-c]pyridine-7-carbonyl)piperazin-1-yl)-2-(3,6-dihydro-2H-pyran-4-yl)-5-ethyl-7-oxo-[1,2,4]triazolo[1,5-a]pyrimidin-4(7H)-yl)-N-(2-methyl-4-(trifluoromethyl)phenyl)acetamide], for which, in the assay on SW48 cells, the GI50 was determined as 0.1 µM.
For `CCc1ccc(NC(=O)Cn2c(C)c(C3CCN(C(C)=O)CC3)c(=O)n3nc(C4=CCOCC4)nc23)cc1Cl` [Example 144, 2-(6-(1-acetylpiperidin-4-yl)-2-(3,6-dihydro-2H-pyran-4-yl)-5-methyl-7-oxo-[1,2,4]triazolo[1,5-a]pyrimidin-4(7H)-yl)-N-(3-chloro-4-ethylphenyl)acetamide], the GI50 in the assay with SW48 cells (setting [2]) is 3 µM.
On to `CC(=O)N1CCC(c2c(C)n(CC(=O)Nc3ccc(C(F)(F)F)cc3)c3nc(C4=CCCCC4)nn3c2=O)CC1` [Example 145, 2-(6-(1-acetylpiperidin-4-yl)-2-(cyclohex-1-en-1-yl)-5-methyl-7-oxo-[1,2,4]triazolo[1,5-a]pyrimidin-4(7H)-yl)-N-(4-(trifluoromethyl)phenyl)acetamide], for which the GI50 in the assay on SW48 cells (setting [2]) came out at 2 µM.
Turning to `Cc1c(N2CCN(C(=O)c3cc(F)ccc3O)CC2)c(=O)n2nc(N3CCOCC3)nc2n1CC(=O)Nc1ccc(C(F)(F)F)cc1` [Example 151, 2-(6-(4-(5-fluoro-2-hydroxybenzoyl)piperazin-1-yl)-5-methyl-2-morpholino-7-oxo-[1,2,4]triazolo[1,5-a]pyrimidin-4(7H)-yl)-N-(4-(trifluoromethyl)phenyl)acetamide], in the assay on SW48 cells (setting [2]), the GI50 was determined as 4 µM. The molecule further returned a 50% inhibitory concentration (IC50) in assay [1] of 0.2 µM.
`Cc1c(N2CCN(C(=O)NNC(=O)C(F)(F)F)CC2)c(=O)n2nc(C3=CCOCC3)nc2n1CC(=O)Nc1ccc(C(F)(F)F)cc1` [Example 165, 2-(2-(3,6-dihydro-2H-pyran-4-yl)-5-methyl-7-oxo-6-(4-(2-(2,2,2-trifluoroacetyl)hydrazine-1-carbonyl)piperazin-1-yl)-[1,2,4]triazolo[1,5-a]pyrimidin-4(7H)-yl)-N-(4-(trifluoromethyl)phenyl)acetamide]: the GI50 with SW48 cells (setting [2]) is more than 10 µM. Besides, the half-inhibitory concentration (IC50) in assay [1] was 0.09 µM.
